Results on 20 compounds are retold here after PubChem BioAssay (NCI).

Where “and” joins values, the source holds several entries; their conditions need not be identical. Equal entries are not always repeated.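 Assay format: 96-well plates, 48-hour exposure. The concentration for 50% growth inhibition is given as GI50. TGI marks complete inhibition of growth.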 Some results are limits rather than exact numbers.

Some test systems named below: LOX IMVI melanoma; NCI-H522 lung; UO-31 renal; SK-OV-3 ovarian; UACC-257 melanoma; DMS 273 small cell lung; SK-MEL-5 melanoma; LXFL 529 NSCLC; NCI-H226 lung; CAKI-1 renal.
Assay in all cases: inhibition of tumour cell growth, NCI panel, 48 h

Turning to `Cc1cc(NCCCCCCCCNc2cc(C)nc3cc(N)ccc23)c2ccc(N)cc2n1`, the TGI in the experiment on LOX IMVI melanoma was 40.1 µM; with NCI-H522 lung it was 30.8 µM; with UO-31 renal it was over 100 µM; in the experiment with SK-OV-3 ovarian it was over 100 µM; in the experiment with UACC-257 melanoma, 35.5 µM; with DMS 273 small cell lung, 28.9 µM. The TGI is 34.8 µM in the experiment with SK-MEL-5 melanoma, 45.2 µM with LXFL 529 NSCLC, 93.3 µM in the experiment with NCI-H226 lung and over 100 µM in the experiment with CAKI-1 renal.
For the compound `N#CCCN(c1ccc(C=Nc2ccccc2)cc1)S(=O)(=O)c1ccccc1`, the TGI in the experiment with NCI-H522 lung, in the experiment on UO-31 renal, in the experiment on SK-OV-3 ovarian, in the experiment on UACC-257 melanoma, in the experiment on DMS 273 small cell lung and with SK-MEL-5 melanoma was over 100 µM in each case. For the same compound, the TGI in the experiment on LXFL 529 NSCLC, in the experiment with NCI-H226 lung and in the experiment with CAKI-1 renal was over 100 µM in each case.
For the compound `Cc1nc(-n2nc(-c3ccccc3)cc2-c2ccccc2)sc1C(=O)/C=C/c1ccc(/C=C/C(=O)c2sc(-n3nc(-c4ccccc4)cc3-c3ccccc3)nc2C)cc1`, the TGI in the experiment on LOX IMVI melanoma is 40.6 µM; with NCI-H522 lung it was 34.4 µM; with UO-31 renal it was 42 µM; in the experiment on SK-OV-3 ovarian, over 100 µM; in the experiment on UACC-257 melanoma, 45.6 µM; in the experiment on DMS 273 small cell lung it was 44.9 µM. For the same compound, the TGI is 67.3 µM with LXFL 529 NSCLC, 71.2 µM in the experiment on NCI-H226 lung and 51.6 µM in the experiment with CAKI-1 renal.
Turning to `O=C(NCCCCCCCCCCCCNC(=O)c1cccc2ccccc12)c1cccc2ccccc12`, the TGI was over 100 µM in the experiment on LOX IMVI melanoma; over 100 µM in the experiment with NCI-H522 lung; over 61 µM in the experiment on UO-31 renal; over 66.8 µM in the experiment on SK-OV-3 ovarian; over 100 µM with UACC-257 melanoma; over 100 µM in the experiment with DMS 273 small cell lung. The TGI in the experiment on SK-MEL-5 melanoma is over 100 µM; in the experiment with LXFL 529 NSCLC, over 100 µM; in the experiment with NCI-H226 lung, over 82.2 µM; in the experiment on CAKI-1 renal, 68.2 µM.
With `CC(=O)O[C@H]1C(=O)[C@@]2(C)C(C(OC(=O)c3ccccc3)[C@]3(O)C[C@H](OC(=O)C(OC(=O)CCCC(=O)NCCCN(C)C)C(NC(=O)c4ccccc4)c4ccccc4)C(C)=C1C3(C)C)C1(OC(C)=O)COC1C[C@@H]2O` (stereo partly drawn), the TGI is 19.2 µM with LOX IMVI melanoma; under 0.0105 µM in the experiment on NCI-H522 lung; 64 µM in the experiment with UO-31 renal; 1.45 µM with SK-OV-3 ovarian; 33.5 µM in the experiment on UACC-257 melanoma; 0.553 µM with DMS 273 small cell lung. In addition, the TGI in the experiment on SK-MEL-5 melanoma is 18.6 µM; with LXFL 529 NSCLC, 20.9 µM; in the experiment with NCI-H226 lung, 39.1 µM; in the experiment on CAKI-1 renal, over 100 µM.
On to `CN1c2ccccc2N(C(=O)c2ccc([N+](=O)[O-])cc2)C(CC(=O)O)c2cccn21` (stereo not drawn), for which the TGI in the experiment with LOX IMVI melanoma, in the experiment with NCI-H522 lung, with UO-31 renal, in the experiment on SK-OV-3 ovarian, with UACC-257 melanoma and in the experiment with DMS 273 small cell lung was over 100 µM in each case. Moreover, the TGI in the experiment with SK-MEL-5 melanoma, in the experiment with LXFL 529 NSCLC, with NCI-H226 lung and with CAKI-1 renal was over 100 µM throughout.
With `Nc1ncnc2c1ncn2[C@]1(CO)C=C(CO)C(O)C1O` (stereo partly drawn), the TGI with LOX IMVI melanoma, with NCI-H522 lung, in the experiment with SK-OV-3 ovarian, in the experiment on UACC-257 melanoma, with DMS 273 small cell lung and with SK-MEL-5 melanoma was over 100 µM throughout. Moreover, the TGI in the experiment with LXFL 529 NSCLC, in the experiment with NCI-H226 lung and in the experiment with CAKI-1 renal was over 100 µM each time.
As for `CC(C)(CN1CCCCC1)C(=O)/C=C/c1ccc(/C=C/C(=O)C(C)(C)CN2CCCCC2)cc1`, the TGI in the experiment on LOX IMVI melanoma was 0.856 µM; in the experiment with NCI-H522 lung, 0.167 µM; with UO-31 renal it was 2.54 µM; with SK-OV-3 ovarian it was 2.91 µM; in the experiment on UACC-257 melanoma, 2.13 µM; with DMS 273 small cell lung, 1.23 µM. Moreover, the TGI in the experiment with SK-MEL-5 melanoma is 1.98 µM; with LXFL 529 NSCLC it was 0.682 µM; with NCI-H226 lung, 3.77 µM; in the experiment with CAKI-1 renal it was 0.904 µM.
In the case of `O=C(N/C(=C\c1ccc(Cl)cc1)c1nc2ccccc2[nH]1)c1ccccc1`, the TGI was 31.5 µM in the experiment on LOX IMVI melanoma; 30.7 µM in the experiment with NCI-H522 lung; 42.2 µM in the experiment on UO-31 renal; 79.4 µM in the experiment with SK-OV-3 ovarian; 46.2 µM in the experiment with UACC-257 melanoma; 42.9 µM with DMS 273 small cell lung. In addition, the TGI was 35.3 µM in the experiment with SK-MEL-5 melanoma, 38.6 µM in the experiment on LXFL 529 NSCLC, 44.9 µM in the experiment on NCI-H226 lung and 54.5 µM in the experiment on CAKI-1 renal.
With `COc1cc2c(cc1OC)[C@@H](Nc1ccc(C#N)cc1)C1COC(=O)[C@@H]1C2c1cc(OC)c(O)c(OC)c1` (stereo partly drawn), the GI50 with NCI-H522 lung was 1.11 µM and 5.06 µM; in the experiment with SK-OV-3 ovarian, 0.195 µM and 0.548 µM; in the experiment with SK-MEL-5 melanoma, 0.499 µM and 0.292 µM; in the experiment with CAKI-1 renal, 0.223 µM and 0.166 µM. Further, the TGI in the experiment on UO-31 renal is 11.9 µM; in the experiment with UACC-257 melanoma it was 95 µM and > 100 µM; in the experiment with DMS 273 small cell lung it was 1.9 µM; in the experiment on SK-MEL-5 melanoma it was 14.3 µM and 2.53 µM; in the experiment on LXFL 529 NSCLC, 95 µM; with NCI-H226 lung, 0.298 µM.
As for `N#Cc1c(-c2ccc(Cl)c(Cl)c2)c(-c2ccc(Cl)c(Cl)c2)nn(CC(=O)O)c1=O`, the TGI in the experiment with LOX IMVI melanoma, with UO-31 renal, in the experiment with SK-OV-3 ovarian, in the experiment with UACC-257 melanoma, in the experiment with DMS 273 small cell lung and with SK-MEL-5 melanoma was over 100 µM each time. Also, the TGI with LXFL 529 NSCLC, in the experiment on NCI-H226 lung and with CAKI-1 renal was over 100 µM each time.
Consider `O=C(/C=C/c1cc(Cl)cc(Cl)c1O)c1cccc(O)c1`, for which the TGI in the experiment on LOX IMVI melanoma was 25.5 µM; in the experiment with NCI-H522 lung, over 100 µM; in the experiment with UO-31 renal it was over 100 µM; in the experiment with SK-OV-3 ovarian it was over 100 µM; with UACC-257 melanoma, over 100 µM; in the experiment on DMS 273 small cell lung it was over 100 µM. Moreover, the TGI in the experiment with SK-MEL-5 melanoma was over 100 µM; in the experiment with LXFL 529 NSCLC it was over 100 µM; in the experiment on NCI-H226 lung, 30.6 µM; in the experiment on CAKI-1 renal it was over 100 µM.
On to `COC(=O)C(C(=O)C(=O)Nc1c(C)cccc1C)c1cnc2ccccc2n1` (stereo not drawn), for which the TGI in the experiment with LOX IMVI melanoma, in the experiment with NCI-H522 lung, in the experiment on UO-31 renal, in the experiment with SK-OV-3 ovarian, with UACC-257 melanoma and with DMS 273 small cell lung was over 100 µM each time. Further, the TGI with SK-MEL-5 melanoma, with LXFL 529 NSCLC, with NCI-H226 lung and with CAKI-1 renal was over 100 µM throughout.
Regarding `COc1ccc(NC(=O)C(=O)c2c(O)c3ccc(O)cc3oc2=O)c([N+](=O)[O-])c1`, the TGI with LOX IMVI melanoma, with NCI-H522 lung, in the experiment with UO-31 renal, in the experiment with SK-OV-3 ovarian, in the experiment on UACC-257 melanoma and in the experiment on DMS 273 small cell lung was over 100 µM throughout. Besides, the TGI with SK-MEL-5 melanoma, in the experiment on LXFL 529 NSCLC, in the experiment on NCI-H226 lung and in the experiment on CAKI-1 renal was over 100 µM each time.
As to `CCCCCN(CCCCC)C(=O)[C@@H](CCC(=O)O)NC(=O)c1cc2ccccc2[nH]1`, the TGI with LOX IMVI melanoma is over 100 µM; in the experiment with NCI-H522 lung, 39.7 µM; in the experiment on UO-31 renal, 79.9 µM; in the experiment on SK-OV-3 ovarian, over 100 µM; with UACC-257 melanoma, over 100 µM; with DMS 273 small cell lung it was over 100 µM. For the same compound, the TGI is over 100 µM in the experiment with LXFL 529 NSCLC, over 100 µM in the experiment with NCI-H226 lung and 67.6 µM in the experiment with CAKI-1 renal.
On to `CC(C)(O)[C@@H]1CC[C@@]2(C)CCCC(O)C2(O)C1` (stereo partly drawn), for which the TGI with LOX IMVI melanoma, with NCI-H522 lung, in the experiment on UO-31 renal, in the experiment on SK-OV-3 ovarian, in the experiment with UACC-257 melanoma and in the experiment with DMS 273 small cell lung was over 100 µM each time. Besides, the TGI in the experiment with SK-MEL-5 melanoma, in the experiment on LXFL 529 NSCLC, in the experiment on NCI-H226 lung and in the experiment with CAKI-1 renal was over 100 µM throughout.
Turning to `C/C(=C1/N=C(c2cc([N+](=O)[O-])ccc2Cl)N(c2cccc(C)c2)C1=O)c1cc2ccccc2oc1=O`, the TGI in the experiment on LOX IMVI melanoma was 37.1 µM; in the experiment with NCI-H522 lung it was over 100 µM; with UO-31 renal it was over 100 µM; in the experiment on SK-OV-3 ovarian, over 100 µM; in the experiment with UACC-257 melanoma, 77.3 µM; in the experiment on DMS 273 small cell lung, over 100 µM. Besides, the TGI is 53.8 µM in the experiment on SK-MEL-5 melanoma, over 100 µM in the experiment on LXFL 529 NSCLC, over 100 µM in the experiment with NCI-H226 lung and over 100 µM in the experiment on CAKI-1 renal.
As to `COC(=O)C(Cc1cc(OC)c(OC)c(OC)c1)C(=O)OC`, the TGI in the experiment on LOX IMVI melanoma, with NCI-H522 lung, in the experiment on SK-OV-3 ovarian, with UACC-257 melanoma, in the experiment with DMS 273 small cell lung and in the experiment with SK-MEL-5 melanoma was over 320 µM throughout. In addition, the TGI in the experiment on LXFL 529 NSCLC and in the experiment with CAKI-1 renal was over 320 µM each time.
In the case of `CN(CCN1C(=O)c2cc([N+](=O)[O-])cc3cc([N+](=O)[O-])cc(c23)C1=O)CCN1C(=O)c2cc([N+](=O)[O-])cc3cc([N+](=O)[O-])cc(c23)C1=O`, the TGI in the experiment with LOX IMVI melanoma is 1.44 µM; in the experiment with NCI-H522 lung, 1.86 µM; in the experiment on UO-31 renal it was over 20.8 µM; with SK-OV-3 ovarian it was over 71.5 µM; in the experiment on UACC-257 melanoma, 9.42 µM; with DMS 273 small cell lung it was 18.4 µM. Also, the TGI was determined as 8.49 µM with SK-MEL-5 melanoma, 20.1 µM with LXFL 529 NSCLC, 9.69 µM with NCI-H226 lung and 0.618 µM in the experiment on CAKI-1 renal.
On to `Cc1ccc(S(=O)(=O)OCCn2cnc3nc(NC(=O)c4ccccc4)[nH]c(=O)c32)cc1`, for which the TGI in the experiment with LOX IMVI melanoma, with NCI-H522 lung, in the experiment with UO-31 renal, in the experiment on SK-OV-3 ovarian, in the experiment on UACC-257 melanoma and in the experiment with DMS 273 small cell lung was over 100 µM each time. The TGI in the experiment on SK-MEL-5 melanoma, in the experiment with LXFL 529 NSCLC, in the experiment on NCI-H226 lung and with CAKI-1 renal was over 100 µM throughout.
